Data set [1] addresses T1, BmrA (Bacillus subtilis, UniProt O06967, E504A).
T1 sequence (O06967 1-589 E504A): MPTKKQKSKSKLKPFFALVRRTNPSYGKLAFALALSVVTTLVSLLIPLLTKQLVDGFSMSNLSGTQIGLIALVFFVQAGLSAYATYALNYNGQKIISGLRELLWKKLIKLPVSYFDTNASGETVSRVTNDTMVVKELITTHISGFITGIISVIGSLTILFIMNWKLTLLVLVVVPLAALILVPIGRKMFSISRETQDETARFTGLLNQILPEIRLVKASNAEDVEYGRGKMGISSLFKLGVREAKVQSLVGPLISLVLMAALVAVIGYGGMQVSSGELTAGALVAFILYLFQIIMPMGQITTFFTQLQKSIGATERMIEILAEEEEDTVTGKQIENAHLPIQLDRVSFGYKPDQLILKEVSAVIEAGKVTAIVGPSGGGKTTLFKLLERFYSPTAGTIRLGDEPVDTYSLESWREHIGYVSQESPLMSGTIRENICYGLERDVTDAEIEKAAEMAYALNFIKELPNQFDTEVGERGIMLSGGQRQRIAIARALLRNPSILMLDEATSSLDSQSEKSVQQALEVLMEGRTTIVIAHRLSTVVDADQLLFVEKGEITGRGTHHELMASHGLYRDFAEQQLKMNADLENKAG
Put plainly: cryo-EM structure. It is filed as binding.

Data set [2] has as its target T2, BmrA (Bacillus subtilis, UniProt O06967).
T2 sequence (O06967 1-589): T1 sequence (O06967 1-589 E504A)
Put plainly: intrinsic fluorescence binding, purified WT BmrA in DDM.

The data set “crystal structure” concerns the molecule itself. Put plainly: crystal structure.

Residue numbers refer to the chain shown, from its start. Names and notes keep the numbering of the source.

The term Kd denotes the equilibrium constant for the complex coming apart. Read a high Kd as a looser complex. On to `CC/N=c1\cc2oc3cc(NCC)c(C)cc3c(-c3ccccc3C(=O)OCC)c-2cc1C` [R6G], for which the figures for the Kd on BmrA [1] and at BmrA [2] were 3.3 ± 0.7 µM and 4.8 ± 0.9 µM, respectively.

B1: BmrA E504A mutant (Bacillus subtilis multidrug ABC exporter, homodimeric) (natural protein)
chain: T1 sequence (O06967 1-589 E504A) with E504A
For B1, the binding result in “crystal structure” was “binds”.

The record behind these values is publication PMC8791611 (Science Advances, 2022).
